“Also recorded” adds a separate entry of the source. Like-named read-outs stand apart in the source and are kept apart here. Values belong to the substance of their own block, whether it stands above or below them. Square brackets hold non-standard residues; d marks the D form. Ends that are not written are not given here. NMeA = CN[C@@H](C)C(=O)O; Abu = CC[C@H](N)C(=O)O; Aib = CC(C)(N)C(=O)O
What was measured:
[1] = system: Mv-1-Lu mink lung epithelial cells; experiment: Inhibition of DNA synthesis (3H-thymidine incorporation) and proliferation of Mv-1-Lu cells; assay type: cell-based; details: for Inhibition in comparison to cytomodulin (Inhib by new peptide/Inhib by cytomodulin): 3H-thymidine incorporation, MV-1-Lu cells; for Inhibition of DNA synthesis / proliferation of Mv-1-Lu cells (in words): 10−9 to 10−6 M range; for % Inhibition of incorporation of 3H-thymidine / 3H-Radioactivity: MV-1 Lu cells; for 3H-Radioactivity: control without peptide 3.57; for Bioactivity as agonist (tested as for DNA inhibition): Example 7
Description: The effect of TGF-β and cytomodulin were evaluated by determining the rate of […]thyidine incorporation into total acid-insoluble DNA and cell number. See generally, Sampath et al., Journal of Biological Chemistry, 267, pp. 20352-20362 (1992). DNA synthesis rates were determined in triplicate cultures after 24 hour treatment with various concentrations (10−9 M to 10^−6M) of either TGF-β or cytomodulin (which was synthesized by the Merrifield method) by adding [methyl-^3H]thymidine (2 μCi/ml, 80 Ci/mmol) for 6 hours before the termination of the culture. Incorporation was terminated by aspiration of the medium, and after washing three times with phosphate-buffered saline, the trichloroacetic acid (10%)-precipitated radioactive DNA was extracted with 1.0% (w/v) sodium dodecyl sulfate, 0.1 M NaOH and quantitated by liquid scintillation counting. For cell number determination, 1×10^5 cells were plated in flasks in MEM containing 10% FBS, and after 24 hours, the growth medium was replaced with serum-free medium containing various conceptions of TGF-β and cytomodulin. Triplicate cultures were harvested every 24 hours for the duration of 7 days, and the cell number was determined by counting cells released by trypsin digestion in a fixed volume hemacytometer.
The numbers shown at the various concentration are the ratio of the inhibition rate of the peptide being tested over the inhibition rate of cytomodulin (SEQ ID NO: 1) at the same concentration.
Tests for bioactivity were conducted as described above for DNA inhibition.

[2] = system: human dermal fibroblasts; experiment: Gene expression in human dermal fibroblasts (Northern analysis); assay type: cell-based
Description: (§1) Total cellular RNA was isolated using essentially the method described by Maniatis. Sambrook et al., Molecular Cloning: A Laboratory Marual, Cold Spring Harbor Laboratory Press, Second Edition (1989). Cells were lysed with 0.5% SDS and 0.1 potassium acetate. The lysate was extracted with phenol and centrifuiged at 5000 rpm for 15 minutes. The aqueous phase was precipitated with 2 volumes ethanol in 0.1 M Tris, pH 8.0 and 0.2 M NaCl. The pellet was resuspended and quantitated by measuring the ultraviolet absorbance at 260 nm. RNA purity was assessed by comparing the ultraviolet absorbance at 260 inm with that at 280 nm.
(§2) RNA (10 μg/lane) was electrophoresed at 3 to 4 v/cm through a 0.7% agarose, 2.2 M formaldehyde denaturing gel. RNA was transferred by capillary transfer to nylon membranes. RNA integrity, gel loading, and transfer efficiency were assessed by methylene blue stained 28S and 18 S bands. The filters were baked at 80° C. for 2 hours to immobilize the RNA. After baking, the filters were hybridized at 65° C. in 0.5 M NaPO4 buffer, pH 7.0, containing 1 mM EDTA, 7% sodium dodecyl sulfate, and 1% bovine serum albumin. cDNA probes were labeled with DDIG […] by the random primer method, using Klenow enzyme. Hybridization for 18 hours at 65° C. followed by washing, was performed.
(§3) Data were analyzed by scanning digoxigenin-dVTP according to manufacturer's procedure (Boehringer Mannheim Biochemica, DIG DNA labelling kit, Cat. No. 1175033).

[3] = system: NRK-49 F normal rat kidney fibroblasts; experiment: Growth and colony formation by NRK-49 F fibroblasts in soft agar; assay type: cell-based; details: for Colony formation in soft agar: 100 nM
Description: The original assay for TGF-β, the ability to promote anchorage independent growth of normal fibroblasts is still one of the hallmarks of TGF-β activity. NRK-49 F fibroblasts were grown at 37° C. in DEM supplemented with 10% fetal calf serum. […] To this, either 100 nM TGF-β (positive control) or 100 nM cytomodulin was added. NRK49 F fibroblasts (5×10^4 cells/ml) were mixed with 0.3% agar were plated on the bottom of 35 mm culture dishes. Colony formation was observed starting on day 3 of culture.

[4] = system: human osteogenic sarcoma (HOS) cell line; experiment: Gene expression in HOS cells (Northern analysis); assay type: cell-based
Description: as §1, §2, §3

[5] = system: TGF-β activity; experiment: TGF-β like activity, overall statement, test not specified; assay type: cell-based
[6] = system: NRK-49 F normal rat kidney fibroblasts; details: in the absence of EGF and PDGF; from Massagu, J. Biol. Chem. 259 (1984); cited from earlier work
[7] = 1 mM peptide (so in the source)

Substance: L-I-A-G-G-E (LIAGGE; TGF-beta mimic) [SEQ ID NO:13]
- Inhibition in comparison to cytomodulin (Inhib by new peptide/Inhib by cytomodulin) ([1]; 1 nM): 1.10
- Inhibition in comparison to cytomodulin (Inhib by new peptide/Inhib by cytomodulin) ([1]; 10 nM): 1.33
- Inhibition in comparison to cytomodulin (Inhib by new peptide/Inhib by cytomodulin) ([1]; 100 nM): 1.45
- Inhibition in comparison to cytomodulin (Inhib by new peptide/Inhib by cytomodulin) ([1]; 1000 nM): 1.90
- Inhibition of DNA synthesis / proliferation of Mv-1-Lu cells (in words) [1]: inhibits thymidine uptake more than SEQ ID NO: 14

Substance: L-(Abu)-A-E-A-K (L[Abu]AEAK) [SEQ ID NO:6]
- % Inhibition of incorporation of 3H-thymidine ([1]; 1 nM peptide): 33%
- 3H-Radioactivity ([1]; 1 nM peptide): 2.02 10^3 dpm
- % Inhibition of incorporation of 3H-thymidine ([1]; 5 nM peptide): 35%
- 3H-Radioactivity ([1]; 5 nM peptide): 1.97 10^3 dpm

Substance: A-N-V-A-E-N-A (ANVAENA; TGF-beta mimic) [cytomodulin]
- Expression of type I collagen [2]: induction of increased expression
- Colony formation in soft agar ([3]; with EGF and PDGF): formed colonies to approximately the same extent as the TGF-β cultures; also recorded: much larger colonies
- Colony formation in soft agar ([3]; without EGF and PDGF): did induce colony formation; also recorded: formation of small colonies
- Expression of TGF-β [4]: increased the expression
- Expression of alkaline phosphatase [4]: stimulate; also recorded: increased the expression
- Expression of osteonectin [4]: stimulate
- Expression of type I collagen [4]: increased the expression
- Inhibition of DNA synthesis / proliferation of Mv-1-Lu cells (in words) [1]: inhibition of DNA synthesis; also recorded: at least as much as TGF-β

Substance: L-I-P-E-A-K (LIPEAK; TGF-beta mimic) [SEQ ID NO:21]
- Bioactivity as agonist (tested as for DNA inhibition) [1]: active as an agonist

Substance: G-G-Q-I-A-N-I (GGQIANI; TGF-beta mimic) [SEQ ID NO:7]
- TGF-β like activity [5]: did not display significant TGF-β activity

Substance: L-I-A-D-A-K (LIADAK; TGF-beta mimic) [SEQ ID NO:9]
- Inhibition in comparison to cytomodulin (Inhib by new peptide/Inhib by cytomodulin) ([1]; 1 nM): 0.45
- Inhibition in comparison to cytomodulin (Inhib by new peptide/Inhib by cytomodulin) ([1]; 10 nM): 0.87
- Inhibition in comparison to cytomodulin (Inhib by new peptide/Inhib by cytomodulin) ([1]; 100 nM): 1.14
- Inhibition in comparison to cytomodulin (Inhib by new peptide/Inhib by cytomodulin) ([1]; 1000 nM): 1.25

Substance: L-I-A-E-A-A (LIAEAA; TGF-beta mimic) [SEQ ID NO:11]
- Inhibition in comparison to cytomodulin (Inhib by new peptide/Inhib by cytomodulin) ([1]; 1 nM): 1.16
- Inhibition in comparison to cytomodulin (Inhib by new peptide/Inhib by cytomodulin) ([1]; 10 nM): 1.00
- Inhibition in comparison to cytomodulin (Inhib by new peptide/Inhib by cytomodulin) ([1]; 100 nM): 1.17
- Inhibition in comparison to cytomodulin (Inhib by new peptide/Inhib by cytomodulin) ([1]; 1000 nM): 1.85
- Inhibition of DNA synthesis / proliferation of Mv-1-Lu cells (in words) [1]: at least as much activity as cytomodulin

Substance: L-I-(Aib)-E-A-K (LI[Aib]EAK) [SEQ ID NO:22]
- Bioactivity as agonist (tested as for DNA inhibition) [1]: active as an agonist

Substance: L-I-(D-Ala)-E-A-K (LI[dA]EAK) [SEQ ID NO:39]
- Bioactivity as agonist (tested as for DNA inhibition) [1]: active as an agonist

Substance: A-N-V-A-E-K (ANVAEK; TGF-beta mimic) [SEQ ID NO:15]
- Inhibition in comparison to cytomodulin (Inhib by new peptide/Inhib by cytomodulin) ([1]; 10 nM): 0.80
- Inhibition in comparison to cytomodulin (Inhib by new peptide/Inhib by cytomodulin) ([1]; 100 nM): 1.00

Substance: L-I-A-Q-A-K (LIAQAK; TGF-beta mimic) [SEQ ID NO:12]
- Inhibition in comparison to cytomodulin (Inhib by new peptide/Inhib by cytomodulin) ([1]; 1 nM): 0.90
- Inhibition in comparison to cytomodulin (Inhib by new peptide/Inhib by cytomodulin) ([1]; 10 nM): 1.10
- Inhibition in comparison to cytomodulin (Inhib by new peptide/Inhib by cytomodulin) ([1]; 100 nM): 0.80
- Inhibition in comparison to cytomodulin (Inhib by new peptide/Inhib by cytomodulin) ([1]; 1000 nM): 1.56

Substance: L-I-A-G-E-G (LIAGEG; TGF-beta mimic) [SEQ ID NO:14]
- Inhibition in comparison to cytomodulin (Inhib by new peptide/Inhib by cytomodulin) ([1]; 1 nM): 0.66
- Inhibition in comparison to cytomodulin (Inhib by new peptide/Inhib by cytomodulin) ([1]; 10 nM): 0.85
- Inhibition in comparison to cytomodulin (Inhib by new peptide/Inhib by cytomodulin) ([1]; 100 nM): 1.41
- Inhibition in comparison to cytomodulin (Inhib by new peptide/Inhib by cytomodulin) ([1]; 1000 nM): 1.88

Substance: L-I-A-N-A-K (LIANAK; TGF-beta mimic) [SEQ ID NO:10]
- Inhibition in comparison to cytomodulin (Inhib by new peptide/Inhib by cytomodulin) ([1]; 1 nM): 1.70
- Inhibition in comparison to cytomodulin (Inhib by new peptide/Inhib by cytomodulin) ([1]; 10 nM): 2.00
- Inhibition in comparison to cytomodulin (Inhib by new peptide/Inhib by cytomodulin) ([1]; 100 nM): 1.43
- Inhibition in comparison to cytomodulin (Inhib by new peptide/Inhib by cytomodulin) ([1]; 1000 nM): 3.05
- Inhibition of DNA synthesis / proliferation of Mv-1-Lu cells (in words) [1]: even more than cytomodulin at every concentration tested

Substance: TGF-β
- Colony formation in soft agar [6]: does not induce colony formation
- Colony formation in soft agar ([3]; with EGF and PDGF): grew colonies

Substance: E-G-I-A-G-K (EGIAGK; TGF-beta mimic) [SEQ ID NO:8]
- TGF-β like activity [5]: did not display significant TGF-β activity

- Expression of collagenase [2]: decreased the expression
Substance: L-I-A-E-A-K (LIAEAK; TGF-beta mimic) [L2]
- Expression of TGF-β [2]: increased the expression
- Expression of type I collagen [2]: increased the expression
- TGF-β like activity [5]: at least as much TGF-β like activity as cytomodulin
- Growth and colony formation of NRK-49F cells in soft agar (in words) [3]: promoted the growth
- Expression of TGF-β [4]: increased the expression
- Expression of alkaline phosphatase [4]: increased the expression
- Expression of type I collagen [4]: increased the expression
- Inhibition of DNA synthesis / proliferation of Mv-1-Lu cells (in words) [1]: inhibited the proliferation

Substance: L-(Aib)-A-E-A-K (L[Aib]AEAK) [SEQ ID NO:4]
- % Inhibition of incorporation of 3H-thymidine ([1]; 5 nM peptide): 35%
- 3H-Radioactivity ([1]; 5 nM peptide): 2.31 10^3 dpm
- % Inhibition of incorporation of 3H-thymidine ([1]; 50 nM peptide): 46%
- 3H-Radioactivity ([1]; 50 nM peptide): 1.94 10^3 dpm
- % Inhibition of incorporation of 3H-thymidine ([1]; 100 nM peptide): 60%
- 3H-Radioactivity ([1]; 100 nM peptide): 1.44 10^3 dpm
- % Inhibition of incorporation of 3H-thymidine ([1]; 500 nM peptide): 55%
- 3H-Radioactivity ([1]; 500 nM peptide): 1.61 10^3 dpm
- % Inhibition of incorporation of 3H-thymidine [1, 7]: 27%
- 3H-Radioactivity [1, 7]: 2.60 10^3 dpm

Substance: L-I-(Nme-A)-E-A-K (LI[NMeA]EAK) [SEQ ID NO:5]
- % Inhibition of incorporation of 3H-thymidine ([1]; 1 nM peptide): 47%
- 3H-Radioactivity ([1]; 1 nM peptide): 1.61 10^3 dpm
- % Inhibition of incorporation of 3H-thymidine ([1]; 5 nM peptide): 42%
- 3H-Radioactivity ([1]; 5 nM peptide): 1.76 10^3 dpm
- % Inhibition of incorporation of 3H-thymidine ([1]; 50 nM peptide): 41%
- 3H-Radioactivity ([1]; 50 nM peptide): 1.60 10^3 dpm
- % Inhibition of incorporation of 3H-thymidine ([1]; 100 nM peptide): 40%
- 3H-Radioactivity ([1]; 100 nM peptide): 1.81 10^3 dpm
- % Inhibition of incorporation of 3H-thymidine ([1]; 500 nM peptide): 53%
- 3H-Radioactivity ([1]; 500 nM peptide): 1.42 10^3 dpm

Substance: L-I-A-K-G-K (LIAKGK; TGF-beta mimic) [SEQ ID NO:16]
- Inhibition in comparison to cytomodulin (Inhib by new peptide/Inhib by cytomodulin) ([1]; 10 nM): 0.65
- Inhibition in comparison to cytomodulin (Inhib by new peptide/Inhib by cytomodulin) ([1]; 100 nM): 0.67

- Expression of collagenase [2]: decreased the expression
Substance: L-I-A-P-E-A (LIAPEA; TGF-beta mimic) [L1]
- Expression of TGF-β [2]: increased the expression
- Expression of type I collagen [2]: increased the expression
- TGF-β like activity [5]: at least as much TGF-β like activity as cytomodulin
- Growth and colony formation of NRK-49F cells in soft agar (in words) [3]: promoted the growth
- Expression of TGF-β [4]: increased the expression
- Expression of alkaline phosphatase [4]: increased the expression
- Expression of type I collagen [4]: increased the expression
- Inhibition of DNA synthesis / proliferation of Mv-1-Lu cells (in words) [1]: inhibited the proliferation
